Measured values: US10709707B2, “Methods of treating ocular conditions” (Oyster Point Pharma, Inc., priority 2016, dated 2020)
Values joined by “and” are separate entries in the source; they are usually repeats but may differ in a detail not shown here. Equal values may be shown once. “Also recorded” adds a separate entry of the source. Read-outs that look alike come from different tables or passages of the source.

Columns and labels:
[1] = system: general behavior (Irwin profile); test: CNS safety pharmacology, general behavior (Irwin profile); type: in vivo, Rat: Sprague-Dawley
Distribution coefficient = type: physicochemical; conditions: pH 7.4
[2] = target: T1, α7 nicotinic acetylcholine receptor (Rattus norvegicus, UniProt Q05941); test: Receptor binding α7, inhibition of [3H]-MLA binding, rat brain membranes
T1 construct: from tissue; host or cells: rat brain membranes (per the earlier reading)

human α4β2 = human α4β2 (Homo sapiens, UniProt P17787+P43681); test: Receptor function α4β2, Ca++ flux; type: cell-based
Experimental: There are two types of α4β2-containing nAChR, depending on which subunit occupies the fifth subunit of the pentaineric complex. There is a high sensitivity subtype, (α4β2)2β2, and a low sensitivity subtype, (α4β2)2α4. Targacept used a rudimentary assay to encourage the expression of one subtype over the other based on incubation temperature.

a6/a3b2b3 = a6/a3b2b3 (Homo sapiens, UniProt P17787+P32297+Q15825); test: Receptor binding a6/a3b2b3
[3] = system: arterial pressure, heart rate, ECG, body temperature; test: Cardiovascular safety, conscious telemetered monkeys po; type: in vivo, Monkey: Cynomologous; conditions: single oral doses 3, 10, 30 mg/kg
a4b4 = a4b4 (Homo sapiens, UniProt P30926+P43681); test: Receptor function a4b4, Ca++ flux; type: cell-based
[4] = target: T2, ganglionic receptor (α3β4) (Homo sapiens, UniProt P30926+P32297); test: Receptor binding ganglionic receptor, SH-SY5Y membranes
T2 construct: endogenous in cells

[5] = stability in human liver microsomes, heat-treated human liver microsomes and human S9 fractions; type: in vitro ADME; conditions: all test systems
Description: In human and monkey, the primary route of metabolism was through oxidation of the pyrrolidine ring (metabolite M02) before further metabolism via dioxidation to M1 or M3. In humans, parent accounted for 37% of extracellular radioactivity, M02 was 13.9%.M1 was 4.1% and M3 was 1.1%. In monkey, parent accounted for 14.2%, M02 was 5.0%, M1 was 5.8% and M3 was 29.4%. In the rat, the primary metabolite is an N-oxide-pyrimidine derivative (M9); it accounted for 71.9% of extracellular radioactivity while parent represented only 1.4%.

[6] = target: T3, rat ganglion receptors α3β4 (Rattus norvegicus, UniProt P04757+P12392); test: Receptor function ganglionic receptors (rat), PC-12 cells; type: cell-based; conditions: for Emax: PC-12, Rat ganglion-type (a3b4*)
T3 construct: endogenous in cells; host or cells: PC-12 cells (per the earlier reading)

mouse lymphoma cells = test: micronucleus test in mouse lymphoma cells; type: cell-based; conditions: in vitro
Description: Compound 1 was negative for mutagenicity in both in vitro bioassays—including an Ames test, a micronucleus test in mouse lymphoma cells, and a chromosome aberration assay using cultured human peripheral blood lymphocytes—and an in vivo rat bone marrow micronucleus test.

[7] = CNS safety pharmacology, body temperature; type: in vivo, Rat: Sprague-Dawley; conditions: po, doses up to and including 100 mg/kg
[8] = a4b2 HS (high sensitivity), 29° C., Ca++ Flux

T2 sequence (P32297 32-505): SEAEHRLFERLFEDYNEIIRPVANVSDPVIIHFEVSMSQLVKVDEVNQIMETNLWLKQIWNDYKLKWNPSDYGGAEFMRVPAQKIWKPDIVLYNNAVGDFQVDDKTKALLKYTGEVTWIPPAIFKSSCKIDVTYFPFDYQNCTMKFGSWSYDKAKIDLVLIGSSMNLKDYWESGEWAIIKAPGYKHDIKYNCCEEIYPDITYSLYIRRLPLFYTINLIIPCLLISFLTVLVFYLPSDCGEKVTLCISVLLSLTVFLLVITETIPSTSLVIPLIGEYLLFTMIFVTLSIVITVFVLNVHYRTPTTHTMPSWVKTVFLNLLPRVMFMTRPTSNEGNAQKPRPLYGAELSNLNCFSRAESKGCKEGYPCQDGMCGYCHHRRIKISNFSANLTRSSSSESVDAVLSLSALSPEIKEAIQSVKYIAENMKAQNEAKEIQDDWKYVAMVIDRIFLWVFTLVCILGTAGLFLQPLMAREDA
T2 sequence (P30926 22-498): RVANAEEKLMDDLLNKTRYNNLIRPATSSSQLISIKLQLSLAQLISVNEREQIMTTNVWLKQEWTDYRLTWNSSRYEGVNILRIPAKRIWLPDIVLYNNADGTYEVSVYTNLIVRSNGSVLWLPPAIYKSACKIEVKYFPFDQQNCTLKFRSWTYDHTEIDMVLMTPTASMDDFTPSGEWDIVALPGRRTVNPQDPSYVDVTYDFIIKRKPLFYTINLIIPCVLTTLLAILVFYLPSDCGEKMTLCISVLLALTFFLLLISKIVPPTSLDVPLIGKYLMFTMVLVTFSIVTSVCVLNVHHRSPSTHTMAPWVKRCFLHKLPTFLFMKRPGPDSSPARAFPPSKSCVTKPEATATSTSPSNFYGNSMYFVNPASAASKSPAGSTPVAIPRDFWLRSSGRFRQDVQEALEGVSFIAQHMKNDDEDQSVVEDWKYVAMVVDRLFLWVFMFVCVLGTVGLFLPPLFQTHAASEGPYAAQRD
Sequence of human α4β2 (P43681 29-627 limits assumed): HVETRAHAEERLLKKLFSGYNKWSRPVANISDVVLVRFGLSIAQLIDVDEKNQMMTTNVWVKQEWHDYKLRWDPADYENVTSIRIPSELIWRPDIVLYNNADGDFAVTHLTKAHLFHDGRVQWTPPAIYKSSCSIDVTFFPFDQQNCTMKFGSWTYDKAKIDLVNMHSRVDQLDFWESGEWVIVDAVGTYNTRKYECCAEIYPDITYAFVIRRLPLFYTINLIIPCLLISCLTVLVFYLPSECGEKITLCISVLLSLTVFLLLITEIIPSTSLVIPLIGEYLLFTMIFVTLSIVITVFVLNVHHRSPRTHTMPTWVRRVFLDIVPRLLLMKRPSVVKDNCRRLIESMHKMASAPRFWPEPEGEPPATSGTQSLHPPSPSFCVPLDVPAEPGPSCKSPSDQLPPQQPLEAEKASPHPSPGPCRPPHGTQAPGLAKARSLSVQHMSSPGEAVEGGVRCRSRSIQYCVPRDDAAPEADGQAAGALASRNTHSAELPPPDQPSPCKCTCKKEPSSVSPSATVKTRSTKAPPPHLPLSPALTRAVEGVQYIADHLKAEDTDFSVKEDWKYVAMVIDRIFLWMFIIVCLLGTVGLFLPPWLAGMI
Sequence of human α4β2 (P17787 26-502): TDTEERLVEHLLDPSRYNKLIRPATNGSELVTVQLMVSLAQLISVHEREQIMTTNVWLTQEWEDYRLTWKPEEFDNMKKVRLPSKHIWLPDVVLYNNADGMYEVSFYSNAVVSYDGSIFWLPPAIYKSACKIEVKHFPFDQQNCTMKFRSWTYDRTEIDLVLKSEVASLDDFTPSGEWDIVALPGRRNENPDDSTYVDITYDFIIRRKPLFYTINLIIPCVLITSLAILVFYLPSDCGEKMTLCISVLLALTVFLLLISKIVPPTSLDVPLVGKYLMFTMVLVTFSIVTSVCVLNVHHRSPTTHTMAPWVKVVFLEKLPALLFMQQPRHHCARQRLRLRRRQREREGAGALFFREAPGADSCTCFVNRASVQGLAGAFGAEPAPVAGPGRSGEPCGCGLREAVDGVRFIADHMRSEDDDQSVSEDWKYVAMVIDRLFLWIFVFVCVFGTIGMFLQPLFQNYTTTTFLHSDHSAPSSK
T3 sequence (P04757 26-499): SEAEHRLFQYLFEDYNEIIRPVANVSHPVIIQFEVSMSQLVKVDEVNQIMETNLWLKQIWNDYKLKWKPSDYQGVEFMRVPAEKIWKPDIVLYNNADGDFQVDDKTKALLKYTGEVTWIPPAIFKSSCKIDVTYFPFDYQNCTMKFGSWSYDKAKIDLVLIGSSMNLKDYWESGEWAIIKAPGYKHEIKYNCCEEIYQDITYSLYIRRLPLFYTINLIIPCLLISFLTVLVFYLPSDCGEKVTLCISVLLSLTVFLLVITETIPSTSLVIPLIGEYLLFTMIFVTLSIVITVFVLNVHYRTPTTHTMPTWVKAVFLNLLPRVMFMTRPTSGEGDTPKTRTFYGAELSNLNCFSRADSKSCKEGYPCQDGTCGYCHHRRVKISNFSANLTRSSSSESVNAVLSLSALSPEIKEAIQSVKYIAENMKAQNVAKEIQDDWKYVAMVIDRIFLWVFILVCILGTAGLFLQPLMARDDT
T3 sequence (P12392 21-495): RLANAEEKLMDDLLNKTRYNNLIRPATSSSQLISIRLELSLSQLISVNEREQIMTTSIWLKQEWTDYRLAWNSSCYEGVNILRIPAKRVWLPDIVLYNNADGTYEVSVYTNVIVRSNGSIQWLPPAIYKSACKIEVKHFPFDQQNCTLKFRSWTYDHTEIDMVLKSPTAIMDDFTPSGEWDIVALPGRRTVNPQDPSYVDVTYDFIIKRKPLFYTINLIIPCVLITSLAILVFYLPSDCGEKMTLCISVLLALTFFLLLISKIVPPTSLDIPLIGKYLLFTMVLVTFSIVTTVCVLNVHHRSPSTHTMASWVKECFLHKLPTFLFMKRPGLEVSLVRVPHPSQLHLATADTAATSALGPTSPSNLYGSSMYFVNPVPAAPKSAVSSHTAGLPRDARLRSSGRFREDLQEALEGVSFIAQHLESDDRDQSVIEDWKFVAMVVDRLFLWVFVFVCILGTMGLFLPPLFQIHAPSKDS
T1 sequence (Q05941 23-502): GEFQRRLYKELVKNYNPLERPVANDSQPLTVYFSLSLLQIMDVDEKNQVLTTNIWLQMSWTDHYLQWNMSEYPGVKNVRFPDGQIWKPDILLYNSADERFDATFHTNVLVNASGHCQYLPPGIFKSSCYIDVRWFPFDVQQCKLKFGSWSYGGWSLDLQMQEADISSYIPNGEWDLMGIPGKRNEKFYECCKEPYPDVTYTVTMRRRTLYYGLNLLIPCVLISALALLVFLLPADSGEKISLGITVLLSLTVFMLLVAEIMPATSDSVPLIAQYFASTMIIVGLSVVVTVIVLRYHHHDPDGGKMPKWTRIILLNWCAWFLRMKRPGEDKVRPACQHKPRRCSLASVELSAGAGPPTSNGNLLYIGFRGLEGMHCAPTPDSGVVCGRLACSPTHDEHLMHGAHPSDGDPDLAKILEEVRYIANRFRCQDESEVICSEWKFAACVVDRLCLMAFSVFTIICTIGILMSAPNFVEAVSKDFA
Sequence of a4b4 (P43681 29-627 limits assumed): as the sequence (P43681 29-627 limits assumed) above
Sequence of a4b4 (P30926 22-498): as the sequence (P30926 22-498) above
Sequence of a6/a3b2b3 (Q15825+P32297 fused with the stated changes): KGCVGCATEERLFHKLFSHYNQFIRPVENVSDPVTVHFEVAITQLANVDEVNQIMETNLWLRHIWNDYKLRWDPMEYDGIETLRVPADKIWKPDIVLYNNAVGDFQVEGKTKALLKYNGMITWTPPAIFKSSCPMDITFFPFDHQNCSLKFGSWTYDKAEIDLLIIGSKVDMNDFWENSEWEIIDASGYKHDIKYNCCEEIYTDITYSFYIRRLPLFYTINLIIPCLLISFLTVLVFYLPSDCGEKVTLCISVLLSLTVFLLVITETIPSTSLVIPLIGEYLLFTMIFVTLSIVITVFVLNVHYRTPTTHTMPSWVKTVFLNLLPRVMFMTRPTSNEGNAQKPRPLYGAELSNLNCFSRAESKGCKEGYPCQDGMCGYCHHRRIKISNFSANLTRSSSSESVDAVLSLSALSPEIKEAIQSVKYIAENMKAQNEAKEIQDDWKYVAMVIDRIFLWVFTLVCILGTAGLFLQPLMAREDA
Sequence of a6/a3b2b3 (P17787 26-502): as the sequence (P17787 26-502) above
Sequence of a6/a3b2b3 (Q05901 25-458 partner limits assumed): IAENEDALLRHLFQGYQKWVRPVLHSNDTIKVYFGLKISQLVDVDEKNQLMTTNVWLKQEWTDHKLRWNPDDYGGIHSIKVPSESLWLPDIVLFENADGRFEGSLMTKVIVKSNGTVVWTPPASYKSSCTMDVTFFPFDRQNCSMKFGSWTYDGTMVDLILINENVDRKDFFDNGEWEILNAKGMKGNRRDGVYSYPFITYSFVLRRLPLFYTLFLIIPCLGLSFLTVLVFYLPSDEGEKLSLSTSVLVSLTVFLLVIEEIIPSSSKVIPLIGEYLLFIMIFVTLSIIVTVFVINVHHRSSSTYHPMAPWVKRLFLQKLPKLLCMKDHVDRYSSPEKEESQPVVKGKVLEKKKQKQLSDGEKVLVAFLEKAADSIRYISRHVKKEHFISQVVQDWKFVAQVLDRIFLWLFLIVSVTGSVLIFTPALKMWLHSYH

With `C(=C\[C@H]1CCNC1)/c1cncnc1` [Compound 1, (R)-5-((E)-2-pyrrolidin-3-ylvinyl)pyrimidine] the “NOEL, general behavior (Irwin profile)” value ([1]; 15, 50, 150 mg/kg po) was “greater than 150 mg/kg”, the “effect on general behavior (Irwin profile)” value ([1]; po, doses up to and including 100 mg/kg) was “no noteworthy changes; also recorded: Compound 1 had no effect on general” and the logD (Distribution coefficient) was less than 1. For the same compound, the Ki ([2]; Rat a7, assay and tissue type not given) was 3.5 µM, the Ki ([2]; [3H]-MLA, rat brain hippocampal membranes) was 5.5 µM and 5.53 µM and the EC50 (human α4β2; Ca++ flux, SH-EP1 cells expressing human α4β2) was 5.3 µM. For the same compound, the Emax (human α4β2; Ca++ flux, SH-EP1 cells expressing human α4β2, read-out: Emax) was 120%, the EC50 (human α4β2; Human a4b2, Ca++ Flux) was 5.3 µM and the “(Imax)” value (human α4β2; a4b2 HS 29° C., Ca++ Flux) was 98. For the same compound, the EC50 (human α4β2; [8]) was 3.3 µM, the IC50 (human α4β2; [8]) was 0.43 µM and the DC50 (human α4β2; a4b2 LS 37° C., Ca++ Flux) was 0.45 µM. The Dmax (human α4β2; a4b2 LS 37° C., Ca++ Flux) was 98%, the EC50 (human α4β2; a4b2 LS (low sensitivity), 37° C., Ca++ Flux) was 5.3 µM and the Emax (human α4β2; high sensitivity subtype (α4β2)2β2, read-out: Emax) was 120%. The EC50 (human α4β2; human α4β2-containing nAChR) was 0.6 µM, the IC50 (human α4β2; low sensitivity subtype (LS)) was 0.45 µM and the Emax (human α4β2; read-out: Emax compared to nicotine, human α4β2-containing nAChR) was 120%. For the same compound, the agonist type (human α4β2; α4β2 nicotine receptor subtype) was “full agonist”, the Ki (a6/a3b2b3) was 0.24 µM and the “arterial pressure, heart rate, ECG parameters, body temperature” value [3] was “no noteworthy changes”. The “arterial pressure, heart rate, ECG parameters, body temperature” value ([3]; listed as TC6499) was “monkeys did not induce notable effects”, the EC50 (a4b4) was 4.3 µM and the Emax (a4b4) was 98%. The Ki ([4]; Human ganglion-type (a3b4*), assay and tissue type not given) was 8.8 µM, the Ki ([4]; [3H]-epibatidine, SH-SY5Y membranes) was 0.6 µM and 0.62 µM and the metabolic stability [5] was “relatively stable”. The Emax ([6]; Ca++ Flux) was 35%, the Emax ([6]; Rb+ Flux, single point) was 19% and the “Activity at rat ganglion receptors” value ([6]; PC-12 cells) was “receptors in PC-12 cells was low (19%)”. For the same compound, the EC50 ([6]; Rat ganglion-type (a3b4*), Ca++ Flux) was 53 µM, the “mutagenicity, micronucleus test” value (mouse lymphoma cells) was “negative” and the “effect on body temperature” value [7] was “no noteworthy changes; also recorded: Compound 1 had no effect on body”.
